{"source": "patent US20230312542A1", "about": "“HYDROXYPYRROLIDINE DERIVATIVE AND MEDICINAL APPLICATION THEREOF” (MITSUBISHI TANABE PHARMA CORPORATION, priority 2020, published 2023)"}
{"target": "VHL (co-expressed with Elongin B and Elongin C) (Homo sapiens (Human), UniProt P40337)", "sequence (P40337 whole entry, looked up)": "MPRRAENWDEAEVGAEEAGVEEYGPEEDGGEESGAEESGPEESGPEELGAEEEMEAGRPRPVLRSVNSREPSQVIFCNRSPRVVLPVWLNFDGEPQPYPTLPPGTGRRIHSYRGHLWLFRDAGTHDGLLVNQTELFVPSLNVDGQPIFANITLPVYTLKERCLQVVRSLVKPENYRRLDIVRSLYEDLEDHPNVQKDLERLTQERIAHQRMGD", "sequence (Q15370 whole entry partner, looked up)": "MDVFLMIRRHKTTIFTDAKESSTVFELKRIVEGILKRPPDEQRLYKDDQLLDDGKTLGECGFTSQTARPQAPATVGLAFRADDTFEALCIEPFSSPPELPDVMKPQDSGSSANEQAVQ", "sequence (Q15369 whole entry partner, looked up)": "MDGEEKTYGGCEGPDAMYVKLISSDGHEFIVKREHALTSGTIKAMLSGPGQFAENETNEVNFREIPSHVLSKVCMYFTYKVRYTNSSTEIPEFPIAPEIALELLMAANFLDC", "test": "Measurement of intermolecular interactions using surface plasmon resonance (Biacore T200), Kd value for VHL", "assay_type": "binding", "conditions": "SPR, immobilized VHL, 25° C.; read-out: Kd", "text": "As the device, Biacore T200 (manufactured by GE Healthcare) was used. VHL was obtained by co-expressing Elongin B and Elongin C with a Twin-Strep-tag added to the N-terminus. As the sensor chip, Sensor chip CM5 (manufactured by GE Healthcare) was used. First, Strep-Tactin XT (manufactured by GE Healthcare) was immobilized on the sensor chip by amine coupling. Thereafter, VHL was immobilized using the affinity of Strep-Tactin XT and Twin-Strep-tag, and VHL was further immobilized on the sensor chip by amine coupling.\nAs the running buffer, a mixed solution of 20 mM HEPES pH 7.5, 150 mM NaCl, 1 mM TCEP, 0.005% Tween 20, and 2% DMSO was used. […] The Contact time and the Dissociation time were determined according to the properties of the compounds. For many compounds, 60 seconds and 120 seconds were respectively used.", "units": {"Kd": "µM"}}
{"smiles": "Cc1cc(-c2cnn(C(C(=O)N3C[C@H](O)C[C@H]3c3ncc[nH]3)C(C)C)c2)on1", "note": "(stereo partly drawn) [Example 160, 1-[(2S,4R)-4-hydroxy-2-(1H-imidazol-2-yl)pyrrolidin-1-yl]-3-methyl-2-[4-(3-methylisoxazol-5-yl)pyrazol-1-yl]butan-1-one]", "Kd": "10 to 50"}
{"smiles": "CCCc1nnc(C(C(=O)N2C[C@H](O)C[C@H]2c2ncc[nH]2)C(C)C)o1", "note": "(stereo partly drawn) [Example 162, 1-[(2S,4R)-4-hydroxy-2-(1H-imidazol-2-yl)pyrrolidin-1-yl]-3-methyl-2-(5-propyl-1,3,4-oxadiazol-2-yl) butan-1-one]", "Kd": "10 to 50"}
{"smiles": "CC(=O)N[C@H](C(=O)N1C[C@H](O)C[C@H]1c1nc(C(=O)N(C)Cc2cccnc2)c[nH]1)C(C)(C)C", "note": "[Example 53, 2-[(2S,4R)-1-[(2S)-2-acetamido-3,3-dimethylbutanoyl]-4-hydroxypyrrolidin-2-yl]-N-methyl-N-(pyridin-3-ylmethyl)-1H-imidazole-4-carboxamide]", "Kd": "1 to 10"}
{"smiles": "CNC(=O)c1ccccc1-c1cnc([C@@H]2C[C@@H](O)CN2C(=O)C(c2cc(OC)no2)C(C)C)[nH]1", "note": "(stereo partly drawn) [Example 64, 2-[2-[(2S,4R)-4-hydroxy-1-[2-(3-methoxy-1,2-oxazol-5-yl)-3-methylbutanoyl]pyrrolidin-2-yl]-1H-imidazol-5-yl]-N-methylbenzamide]", "Kd": "1 to 10"}
{"smiles": "COc1cc(C(C(=O)N2C[C@H](O)C[C@H]2c2nc(C(=O)N(C)Cc3ccc(-c4ccnc(C)c4)cc3)c[nH]2)C(C)C)on1", "note": "(stereo partly drawn) [Example 153, 2-[(2S,4R)-4-hydroxy-1-[2-(3-methoxyisoxazol-5-yl)-3-methylbutanoyl]pyrrolidin-2-yl]-N-methyl-N-[[4-(2-methyl-4-pyridyl)phenyl]methyl]-1H-imidazole-4-carboxamide]", "Kd": "< 1"}
{"smiles": "COc1cc(C(C(=O)N2C[C@H](O)C[C@H]2c2ncc(Cc3ccc(C(F)(F)F)cc3)[nH]2)C(C)C)on1", "note": "(stereo partly drawn) [Example 79, 1-[(2S,4R)-4-hydroxy-2-[5-[[4-(trifluoromethyl)phenyl]methyl]-1H-imidazol-2-yl]pyrrolidin-1-yl]-2-(3-methoxy-1,2-oxazol-5-yl)-3-methylbutan-1-one]", "Kd": "1 to 10"}
{"smiles": "COc1cc(C(C(=O)N2C[C@H](O)C[C@H]2c2nc(C(=O)N3CCCC(C(=O)Nc4ccccc4)C3)c[nH]2)C(C)C)on1", "note": "(stereo partly drawn) [Example 148, 1-[2-[(2S,4R)-4-hydroxy-1-[2-(3-methoxyisoxazol-5-yl)-3-methylbutanoyl]pyrrolidin-2-yl]-1H-imidazole-4-carbonyl]-N-phenylpiperidine-3-carboxamide]", "Kd": "1 to 10"}
{"smiles": "COc1cc(C(C(=O)N2C[C@H](O)C[C@H]2c2nc(C)cs2)C(C)C)on1", "note": "(stereo partly drawn) [Example 147, 1-[(2S,4R)-4-hydroxy-2-(4-methylthiazol-2-yl)pyrrolidin-1-yl]-2-(3-methoxyisoxazol-5-yl)-3-methylbutan-1-one]", "Kd": "10 to 50"}
{"smiles": "COc1cc(C(C(=O)N2C[C@H](O)C[C@H]2c2nc(C(=O)N(C)Cc3ccc(-c4ccc(C)nc4)cc3)c[nH]2)C(C)C)on1", "note": "(stereo partly drawn) [Example 154, 2-[(2S,4R)-4-hydroxy-1-[2-(3-methoxyisoxazol-5-yl)-3-methylbutanoyl]pyrrolidin-2-yl]-N-methyl-N-[[4-(6-methyl-3-pyridyl)phenyl]methyl]-1H-imidazole-4-carboxamide]", "Kd": "< 1"}
{"smiles": "CC(=O)N[C@H](C(=O)N1C[C@H](O)C[C@H]1c1nc(C(=O)N(C)Cc2ccc(Cl)cc2)c[nH]1)C(C)(C)C", "note": "[Example 16, 2-[(2S,4R)-1-[(2S)-2-acetamido-3,3-dimethylbutanoyl]-4-hydroxypyrrolidin-2-yl)-N-[(4-chlorophenyl)methyl]-N-methyl-1H-imidazole-4-carboxamide]", "Kd": "1 to 10"}
{"smiles": "COc1cccc(Cc2cnc([C@@H]3C[C@@H](O)CN3C(=O)C(c3cc(OC)no3)C(C)C)[nH]2)c1", "note": "(stereo partly drawn) [Example 63, 1-[(2S,4R)-4-hydroxy-2-[5-[(3-methoxyphenyl)methyl]-1H-imidazol-2-yl]pyrrolidin-1-yl]-2-(3-methoxy-1,2-oxazol-5-yl)-3-methylbutan-1-one]", "Kd": "1 to 10"}
{"smiles": "CC(=O)N[C@H](C(=O)N1C[C@H](O)C[C@H]1c1nc(C(=O)N(C)Cc2ccccc2C(F)(F)F)c[nH]1)C(C)(C)C", "note": "[Example 20, 2-[(2S,4R)-1-[(2S)-2-acetamido-3,3-dimethylbutanoyl]-4-hydroxypyrrolidin-2-yl]-N-methyl-N-[[2-(trifluoromethyl)phenyl]methyl]-1H-imidazole-4-carboxamide]", "Kd": "1 to 10"}
{"smiles": "COc1cc(C(C(=O)N2C[C@H](O)C[C@H]2c2nccn2CC(=O)Nc2ccccc2)C(C)C)on1", "note": "(stereo partly drawn) [Example 96, 2-[2-[(2S,4R)-4-hydroxy-1-[2-(3-methoxy-1,2-oxazol-5-yl)-3-methylbutanoyl]pyrrolidin-2-yl]imidazol-1-yl]-N-phenylacetamide]", "Kd": "10 to 50"}
{"smiles": "CC(=O)N[C@H](C(=O)N1C[C@H](O)C[C@H]1c1nc(C(=O)N(C)Cc2ccccn2)c[nH]1)C(C)(C)C", "note": "[Example 48, 2-[(2S,4R)-1-[(2S)-2-acetamido-3,3-dimethylbutanoyl]-4-hydroxypyrrolidin-2-yl]-N-methyl-N-(pyridin-2-ylmethyl)-1H-imidazole-4-carboxamide]", "Kd": "1 to 10"}
{"smiles": "CC(=O)N[C@H](C(=O)N1C[C@H](O)C[C@H]1c1nc(C(=O)N(C)Cc2ccccc2Cl)c[nH]1)C(C)(C)C", "note": "[Example 14, 2-[(2S,4R)-1-[(2S)-2-acetamido-3,3-dimethylbutanoyl]-4-hydroxypyrrolidin-2-yl]-N-[(2-chlorophenyl)methyl]-N-methyl-1H-imidazole-4-carboxamide]", "Kd": "1 to 10"}
{"smiles": "CC(=O)N[C@H](C(=O)N1C[C@H](O)C[C@H]1c1nc(C(=O)N(C)Cc2cccc(F)c2)c[nH]1)C(C)(C)C", "note": "[Example 18, 2-[(2S,4R)-1-[(2S)-2-acetamido-3,3-dimethylbutanoyl]-4-hydroxypyrrolidin-2-yl]-N-[(3-fluorophenyl)methyl]-N-methyl-1H-imidazole-4-carboxamide]", "Kd": "1 to 10"}
{"smiles": "COc1cc(C(C(=O)N2C[C@H](O)C[C@H]2c2nc(C(=O)N3CCC(c4ccc(C)cn4)CC3)c[nH]2)C(C)C)on1", "note": "(stereo partly drawn) [Example 144, 1-[(2S,4R)-4-hydroxy-2-[4-[4-(5-methyl-2-pyridyl)piperidine-1-carbonyl]-1H-imidazol-2-yl]pyrrolidin-1-yl]-2-(3-methoxyisoxazol-5-yl)-3-methylbutan-1-one]", "Kd": "1 to 10"}
{"smiles": "COc1cc(C(C(=O)N2C[C@H](O)C[C@H]2c2nc(C(=O)N(C)[C@H](C)C(=O)NCc3ccccc3)c[nH]2)C(C)C)on1", "note": "(stereo partly drawn) [Example 159, N-[(1R)-2-(benzylamino)-1-methyl-2-oxo-ethyl]-2-[(2S,4R)-4-hydroxy-1-[2-(3-methoxyisoxazol-5-yl)-3-methylbutanoyl]pyrrolidin-2-yl]-N-methyl-1H-imidazole-4-carboxamide]", "Kd": "< 1"}
{"smiles": "CC(=O)N[C@H](C(=O)N1C[C@H](O)C[C@H]1c1nc(C(=O)N(C)Cc2ccc3ccccc3c2)c[nH]1)C(C)(C)C", "note": "[Example 30, 2-[(2S,4R)-1-[(2S)-2-acetamido-3,3-dimethylbutanoyl]-4-hydroxypyrrolidin-2-yl]-N-methyl-N-(naphthalen-2-ylmethyl)-1H-imidazole-4-carboxamide]", "Kd": "1 to 10"}
{"smiles": "CC(=O)N[C@H](C(=O)N1C[C@H](O)C[C@H]1c1ncc(-c2ccccc2C(F)(F)F)[nH]1)C(C)(C)C", "note": "[Example 84, N-[(2S)-1-[(2S,4R)-4-hydroxy-2-[5-[2-(trifluoromethyl)phenyl]-1H-imidazol-2-yl]pyrrolidin-1-yl]-3,3-dimethyl-1-oxobutan-2-yl]acetamide]", "Kd": "1 to 10"}
{"smiles": "COc1cc(C(C(=O)N2C[C@H](O)C[C@H]2c2nccn2Cc2ccccc2Oc2ccccc2)C(C)C)on1", "note": "(stereo partly drawn) [Example 69, 1-[(2S,4R)-4-hydroxy-2-[1-[(2-phenoxyphenyl)methyl]imidazol-2-yl]pyrrolidin-1-yl]-2-(3-methoxy-1,2-oxazol-5-yl)-3-methylbutan-1-one]", "Kd": "10 to 50"}
{"smiles": "CC(=O)N[C@H](C(=O)N1C[C@H](O)C[C@H]1c1nc(C(=O)N(C)Cc2ccc(-c3scnc3C)cc2)c[nH]1)C(C)(C)C", "note": "[Example 35, 2-[(2S,4R)-1-[(2S)-2-acetamido-3,3-dimethylbutanoyl]-4-hydroxypyrrolidin-2-yl]-N-methyl-N-[[4-(4-methyl-1,3-thiazol-5-yl)phenyl]methyl]-1H-imidazole-4-carboxamide]", "Kd": "1 to 10"}
{"smiles": "COc1cc(C(C(=O)N2C[C@H](O)C[C@H]2c2nccn2Cc2ccnc(-c3ccc(C(F)(F)F)cc3)c2)C(C)C)on1", "note": "(stereo partly drawn) [Example 102, 1-[(2S,4R)-4-hydroxy-2-[1-[[2-[4-(trifluoromethyl)phenyl]-4-pyridyl]methyl]imidazol-2-yl]pyrrolidin-1-yl]-2-(3-methoxyisoxazol-5-yl)-3-methylbutan-1-one]", "Kd": "10 to 50"}
{"smiles": "CC(=O)N[C@H](C(=O)N1C[C@H](O)C[C@H]1c1ncc(Cc2cccc(Br)c2)[nH]1)C(C)(C)C", "note": "[Example 90, N-[(2S)-1-[(2S,4R)-2-[5-[(3-bromophenyl)methyl]-1H-imidazol-2-yl]-4-hydroxypyrrolidin-1-yl]-3,3-dimethyl-1-oxobutan-2-yl]acetamide]", "Kd": "1 to 10"}
{"smiles": "COc1ccc(-c2[nH]c([C@@H]3C[C@@H](O)CN3C(=O)C(c3cc(OC)no3)C(C)C)nc2C(F)(F)F)cc1", "note": "(stereo partly drawn) [Example 74, 1-[(2S,4R)-4-hydroxy-2-[5-(4-methoxyphenyl)-4-(trifluoromethyl)-1H-imidazol-2-yl]pyrrolidin-1-yl]-2-(3-methoxy-1,2-oxazol-5-yl)-3-methylbutan-1-one]", "Kd": "1 to 10"}
{"smiles": "CC(=O)N[C@H](C(=O)N1C[C@H](O)C[C@H]1c1ncc(Cc2ccc(-c3scnc3C)cc2)[nH]1)C(C)(C)C", "note": "[Example 93, N-[(1S)-1-[(2S,4R)-4-hydroxy-2-[5-[[4-(4-methyl-1,3-thiazol-5-yl)phenyl]methyl]-1H-imidazol-2-yl]pyrrolidin-1-yl]-3,3-dimethyl-1-oxobutan-2-yl]acetamide]", "Kd": "1 to 10"}
